According to patent publication US7067491B2, “Heterocyclic compounds having elastase-inhibiting activity and intermediates thereof” (Dainippon Pharmaceutical Co., Ltd., priority 2002, dated 2006):

molecular target: T1, human neutrophil elastase (Homo sapiens, UniProt P08246); assay: Inhibitory activity on human neutrophil elastase (HNE) in vitro; format: biochemical; settings: human neutrophil elastase 0.2 U/ml, substrate MeO-Suc-Ala-Ala-Pro-Val-pNA 0.5 mM, 37° C., pH 7.5
T1 construct: purchased Elastine Product Co., Inc
T1 sequence (P08246 30-267): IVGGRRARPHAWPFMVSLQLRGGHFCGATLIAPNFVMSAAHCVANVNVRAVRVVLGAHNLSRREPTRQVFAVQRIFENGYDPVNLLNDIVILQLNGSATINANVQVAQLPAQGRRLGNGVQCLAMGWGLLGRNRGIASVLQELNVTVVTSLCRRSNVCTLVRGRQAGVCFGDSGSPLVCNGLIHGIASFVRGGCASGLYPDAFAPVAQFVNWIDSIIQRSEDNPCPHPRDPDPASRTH
Description: Experiment 1: Inhibitory Activity on Human Neutrophil Elastase (HNE)
The inhibitory activity of the compound of the present invention in vitro on human neutrophil elastase was examined by this experiment.
To 100 mM of HEPES {[N-(2-hydroxyethyl)piperazine-N′-(2-ethanesulfonic acid)], pH 7.5}buffer solution containing 1M NaCl and 0.001% Brij-35 (polyoxyethylene lauryl ether) were added human neutrophil elastase (final concentration: 0.2 U/ml, Elastine Product Co., Inc.) and the compound of the present invention (dissolved in 10% dimethyl sulfoxide; final concentration: 10^−10˜3×10^−3 M). The mixture was pre-incubated for 3 minutes at 37° C. Thereto was added MeO-Suc-Ala-Ala-Pro-Val-pNA (methoxysuccinyl-alanyl-alanyl-prolyl-valyl-p-nitroanilide (Sigma Chemical Co.)) as a substrate to give the final concentration of 0.5 mM, and the reaction was initiated. Under this condition, the producing rate of the reaction product, p-nitroanilide (pNA) at 37° C. was estimated by measuring the absorbance at 404 nm for 3 minutes.
The inhibitory activity of the compound of the present invention against human neutrophil elastase (HNE) is calculated according to the following formula.
The concentration of the compound of the present invention to be required to achieve 50% HNE inhibition (i.e., IC50) was calculated based on the concentration-inhibitory rate curve of the compound of the present invention.
As a comparative compound, N-[(1S)-2-((2S)-2-{N-[(1S)-3,3,3-trifluoro-1-(methylethyl)-2-oxopropyl]carbamoyl}pyrrolidinyl)-1-(methylethyl)-2-oxoethyl](imidazol-4-yl)carboxamide was used, and the same assay was carried out. The planar structure of this compound was the same as one of compound (22) disclosed in J. Med. Chem., 1997, 40, 1876–1885.

| Structure (SMILES) | IC50 |
| --- | --- |
| CC(C)[C@H](NC(=O)c1c[nH]cn1)C(=O)N1CCC[C@H]1C(=O)N[C@H](C(=O)C(F)(F)F)C(C)C [Comparative compound, N-[(1S)-2-((2S)-2-{N-[(1S)-3,3,3-trifluoro-1-(methylethyl)-2-oxopropyl]carbamoyl}pyrrolidinyl)-1-(methylethyl)-2-oxoethyl](imidazol-4-yl)carboxamide, reference compound] | 78 nM |
| CCc1noc(C)c1C(=O)N[C@H](C(=O)N1CCC[C@H]1C(=O)N[C@H](C(=O)C(F)(F)F)C(C)C)C(C)C [Example 4, N-[(1S)-2-((2S)-2-{N-[(1S)-3,3,3-trifluoro-1-(methylethyl)-2-oxopropyl]carbamoyl}pyrrolidinyl)-1-(methylethyl)-2-oxoethyl]-(3-ethyl-5-methylisoxazol-4-yl)carboxamide] | 17 nM |
| Cc1nsc(C)c1C(=O)N[C@H](C(=O)N1CCC[C@H]1C(=O)N[C@H](C(=O)C(F)(F)F)C(C)C)C(C)C [Example 5, N-[(1S)-2-((2S)-2-{N-[(1S)-3,3,3-trifluoro-1-(methylethyl)-2-oxopropyl]carbamoyl}pyrrolidinyl)-1-(methylethyl)-2-oxoethyl]-(3,5-dimethylisothiazol-4-yl)carboxamide] | 22 nM |
| CC(C)[C@H](NC(=O)c1cc(-c2ccccc2)on1)C(=O)N1CCC[C@H]1C(=O)N[C@H](C(=O)C(F)(F)F)C(C)C [Example 9, N-[(1S)-2-((2S)-2-(N-[(1S)-3,3,3-trifluoro-1-(methylethyl)-2-oxopropyl]carbamoyl}pyrrolidinyl)-1-(methylethyl)-2-oxoethyl]-(5-phenylisoxazol-3-yl)carboxamide] | 9.2 nM |
| CC(C)[C@H](NC(=O)c1ccc2c(c1)nnn2C(C)C)C(=O)N1CCC[C@H]1C(=O)N[C@H](C(=O)C(F)(F)F)C(C)C [Example 13, N-[(1S)-2-((2S)-2-{N-[(1S)-3,3,3-trifluoro-1-(methylethyl)-2-oxopropyl]carbamoyl}pyrrolidinyl)-1-(methylethyl)-2-oxoethyl]-[1-(methylethyl)benzotriazol-5-yl]carboxamide] | 6.3 nM |
| CC(C)[C@H](NC(=O)c1ccc2snnc2c1)C(=O)N1CCC[C@H]1C(=O)N[C@H](C(=O)C(F)(F)F)C(C)C [Example 14, N-[(1S)-2-((2S)-2-{N-[(1S)-3,3,3-trifluoro-1-(methylethyl)-2-oxopropyl]carbamoyl}pyrrolidinyl)-1-(methylethyl)-2-oxoethyl](benzo[d]1,2,3-thiadiazol-5-yl)carboxamide] | 12 nM |
| Cc1ccc2onc(C(=O)N[C@H](C(=O)N3CCC[C@H]3C(=O)N[C@H](C(=O)C(F)(F)F)C(C)C)C(C)C)c2c1 [Example 18, N-[(1S)-2-((2S)-2-{N-[(1S)-3,3,3-trifluoro-1-(methylethyl)-2-oxopropyl]carbamoyl}pyrrolidinyl)-1-(methylethyl)-2-oxoethyl]-(5-methylbenzo[d]isoxazol-3-yl)carboxamide] | 12 nM |
| Cc1nocc1C(=O)N[C@H](C(=O)N1CCC[C@H]1C(=O)N[C@H](C(=O)C(F)(F)F)C(C)C)C(C)C [Example 21, N-[(1S)-2-((2S)-2-{N-[(1S)-3,3,3-trifluoro-1-(methylethyl)-2-oxopropyl]carbamoyl}pyrrolidinyl)-1-(methylethyl)-2-oxoethyl]-(3-methylisoxazol-4-yl)carboxamide] | 11 nM |
| CC(C)[C@H](NC(=O)c1cc(C(C)(C)C)no1)C(=O)N1CCC[C@H]1C(=O)N[C@H](C(=O)C(F)(F)F)C(C)C [Example 23, N-[(1S)-2-((2S)-2-{N-[(1S)-3,3,3-trifluoro-1-(methylethyl)-2-oxopropyl]carbamoyl}pyrrolidinyl)-1-(methylethyl)-2-oxoethyl]-(3-tert-butylisoxazol-5-yl)carboxamide] | 15 nM |
| CC(C)[C@H](NC(=O)c1cc(-c2ccccc2)no1)C(=O)N1CCC[C@H]1C(=O)N[C@H](C(=O)C(F)(F)F)C(C)C [Example 24, N-[(1S)-2-((2S)-2-{N-[(1S)-3,3,3-trifluoro-1-(methylethyl)-2-oxopropyl]carbamoyl}pyrrolidinyl)-1-(methylethyl)-2-oxoethyl]-(3-phenylisoxazol-5-yl)carboxamide] | 15 nM |
| Cc1c(C(=O)N[C@H](C(=O)N2CCC[C@H]2C(=O)N[C@H](C(=O)C(F)(F)F)C(C)C)C(C)C)cnn1C(C)(C)C [Example 32, N-[(1S)-2-((2S)-2-{N-[(1S)-3,3,3-trifluoro-1-(methylethyl)-2-oxopropyl]carbamoyl}pyrrolidinyl)-1-(methylethyl)-2-oxoethyl]-(1-tert-butyl-5-methylpyrazol-4-yl)carboxamide] | 8.5 nM |
| CC(C)[C@H](NC(=O)c1cnn(-c2ccccc2)c1)C(=O)N1CCC[C@H]1C(=O)N[C@H](C(=O)C(F)(F)F)C(C)C [Example 33, N-[(1S)-2-((2S)-2-{N-[(1S)-3,3,3-trifluoro-1-(methylethyl)-2-oxopropyl]carbamoyl}pyrrolidinyl)-1-(methylethyl)-2-oxoethyl]-(1-phenylpyrazol-4-yl)carboxamide] | 12 nM |
| Cc1nn(-c2ccccc2)c(C)c1C(=O)N[C@H](C(=O)N1CCC[C@H]1C(=O)N[C@H](C(=O)C(F)(F)F)C(C)C)C(C)C [Example 34, N-[(1S)-2-((2S)-2-{N-[(1S)-3,3,3-trifluoro-1-(methylethyl)-2-oxopropyl]carbamoyl}pyrrolidinyl)-1-(methylethyl)-2-oxoethyl]-(3,5-dimethyl-1-phenylpyrazol-4-yl)carboxamide] | 9.8 nM |
| Cc1c(C(=O)N[C@H](C(=O)N2CCC[C@H]2C(=O)N[C@H](C(=O)C(F)(F)F)C(C)C)C(C)C)cnn1-c1ccc(F)cc1 [Example 37, N-[(1S)-2-((2S)-2-{N-[(1S)-3,3,3-trifluoro-1-(methylethyl)-2-oxopropyl]carbamoyl}pyrrolidinyl)-1-(methylethyl)-2-oxoethyl]-[1-(4-fluorophenyl)-5-methylpyrazol-4-yl]carboxamide] | 9.1 nM |
| Cc1ccc(-n2ncc(C(=O)N[C@H](C(=O)N3CCC[C@H]3C(=O)N[C@H](C(=O)C(F)(F)F)C(C)C)C(C)C)c2C)cc1 [Example 39, N-[(1S)-2-((2S)-2-{N-[(1S)-3,3,3-trifluoro-1-(methylethyl)-2-oxopropyl]carbamoyl}pyrrolidinyl)-1-(methylethyl)-2-oxoethyl]-[5-methyl-1-(4-methylphenyl)pyrazol-4-yl]carboxamide] | 10 nM |
| Cc1c(C(=O)N[C@H](C(=O)N2CCC[C@H]2C(=O)N[C@H](C(=O)C(F)(F)F)C(C)C)C(C)C)cnn1-c1cccc(F)c1 [Example 46, N-[(1S)-2-((2S)-2-{N-[(1S)-3,3,3-trifluoro-1-(methylethyl)-2-oxopropyl]carbamoyl}pyrrolidinyl)-1-(methylethyl)-2-oxoethyl]-[1-(3-fluorophenyl)-5-methylpyrazol-4-yl]carboxamide] | 8.1 nM |

tested on: pulmonary hemorrhage induced by human neutrophil elastase (HNE); assay: Inhibitory activity on pulmonary hemorrhage induced by human neutrophil elastase (HNE); format: in vivo; settings: Homo sapiens, Neutrophil, po; hamster, orally administered 30 minutes prior to intratracheal HNE; hemoglobin in bronchoalveolar lavage fluid after 1 hour
Description: Experiment 3: Inhibitory Activity on Pulmonary Hemorrhage Induced by Human Neutrophil Elastase (HNE)
This experiment tested on in vivo efficacy of the compound of the present invention. When human neutrophil elastase is intratracheally administered to a hamster, the pulmonary hemorrhage is induced. A definite time later after administration of the elastase, in the bronchoalveolar lavage fluid by washing lung via trachea, hemoglobin is detected.
Hamsters (Syrian strain, 7–10 weeks old male) were divided into groups consisting of 3 to 6, and each group was treated as follows:
(A) A Group to which the Compound of the Present Invention was not Administered (Disease Control):
Physiological saline solution (0.2 ml) in which 25 unit of human neutrophil elastase (Elastin Product Co., Inc.) was dissolved was intratracheally administered to a hamster to induce the pulmonary hemorrhage. One hour later after administration of elastase, the hamsters were sacrificed by exsanquination, and alveoli were transtracheally washed twice with physiological saline (2.5 ml), and the hemoglobin concentration in the bronchoalveolar lavage fluid (5 ml) was determined by measuring the absorbance at 414 nm.
(B) A Group to which the Compound of the Present Invention was Administered:
A fixed amount of the compound of the present invention was dissolved in dimethyl sulfoxide (DMSO), and thereto was added 0.5% tragacanth gum to prepare a suspension. The suspension was orally administered to a hamster, 30 minutes prior to the administration of human neutrophil elastase (HNE) (final concentration of DMSO, 1%), and then, human neutrophil elastase was administered in the same manner as the above method (A). After 1 hour, the concentration of hemoglobin in the bronchoalveolar lavage fluid was determined in the same manner as the above method (A).
The hemorrhage inhibition activity of the compound of the present invention is represented as the hemorrhage inhibiting rate in the following formula.
The dose of the compound of the present invention to be required to achieve 50% inhibition of pulmonary hemorrhage (i.e., ED50) was calculated based on the administration dose-hemorrhage inhibiting rate curve.
As a comparative example, the same experiment was also carried out on a comparative compound used in Experiment 1.
Some of the compounds of the present invention were compared with the comparative compound on the hemorrhage inhibitory rate at the dose of 3 mg/kg.

| Structure (SMILES) | ED50 |
| --- | --- |
| CCc1noc(C)c1C(=O)N[C@H](C(=O)N1CCC[C@H]1C(=O)N[C@H](C(=O)C(F)(F)F)C(C)C)C(C)C [Example 4, N-[(1S)-2-((2S)-2-{N-[(1S)-3,3,3-trifluoro-1-(methylethyl)-2-oxopropyl]carbamoyl}pyrrolidinyl)-1-(methylethyl)-2-oxoethyl]-(3-ethyl-5-methylisoxazol-4-yl)carboxamide] | 2.5 mg/kg |

same assay, conditions: hamster, dose 3 mg/kg orally, 30 minutes prior to HNE

| Structure (SMILES) | Pulmonary hemorrhage inhibitory rate (%) |
| --- | --- |
| CC(C)[C@H](NC(=O)c1c[nH]cn1)C(=O)N1CCC[C@H]1C(=O)N[C@H](C(=O)C(F)(F)F)C(C)C [Comparative compound, N-[(1S)-2-((2S)-2-{N-[(1S)-3,3,3-trifluoro-1-(methylethyl)-2-oxopropyl]carbamoyl}pyrrolidinyl)-1-(methylethyl)-2-oxoethyl](imidazol-4-yl)carboxamide, reference compound] | 18% |

same assay, conditions: hamster, orally administered 30 minutes prior to intratracheal HNE; hemoglobin in bronchoalveolar lavage fluid after 1 hour

| Structure (SMILES) | Inhibitory activity on pulmonary hemorrhage ED50 |
| --- | --- |
| CC(C)[C@H](NC(=O)c1c[nH]cn1)C(=O)N1CCC[C@H]1C(=O)N[C@H](C(=O)C(F)(F)F)C(C)C [Comparative compound, N-[(1S)-2-((2S)-2-{N-[(1S)-3,3,3-trifluoro-1-(methylethyl)-2-oxopropyl]carbamoyl}pyrrolidinyl)-1-(methylethyl)-2-oxoethyl](imidazol-4-yl)carboxamide, reference compound] | >10 mg/kg |
